Tests used:
[1] = Caco-2 Permeability Assay; format: in vitro ADME; conditions: human, Caco-2, test compound 3 μM
Outline: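 Bidirectional permeability measured over 2 h at 37° C, compound dosed at 3 μM in the donor compartment (apical for absorptive, basolateral for secretive) with plain buffer as receiver.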

[2] = system: Human whole blood stimulated with a TLR2 agonist (lipoteichoic acid), IL-6 levels; assay: IRAK4 Whole Blood Assay; format: cell-based; conditions: lipoteichoic acid 10 μg/mL
Outline: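 IL-6 was quantified by cytometric bead assay in supernatants of human blood (ACD-A) stimulated for 5 h with lipoteichoic acid at 10 μg/mL final. Compound exposure preceded stimulation for 60 min at 37 °C, 5% CO2.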

IRAK4 = IRAK4 (Homo sapiens (Human), UniProt Q9NWZ3); assay: IRAK4 Inhibition Assay; format: biochemical; conditions: ATP 500 μM; IRAK4 0.6 nM
IRAK4, sequence (Q9NWZ3 whole entry, species assumed): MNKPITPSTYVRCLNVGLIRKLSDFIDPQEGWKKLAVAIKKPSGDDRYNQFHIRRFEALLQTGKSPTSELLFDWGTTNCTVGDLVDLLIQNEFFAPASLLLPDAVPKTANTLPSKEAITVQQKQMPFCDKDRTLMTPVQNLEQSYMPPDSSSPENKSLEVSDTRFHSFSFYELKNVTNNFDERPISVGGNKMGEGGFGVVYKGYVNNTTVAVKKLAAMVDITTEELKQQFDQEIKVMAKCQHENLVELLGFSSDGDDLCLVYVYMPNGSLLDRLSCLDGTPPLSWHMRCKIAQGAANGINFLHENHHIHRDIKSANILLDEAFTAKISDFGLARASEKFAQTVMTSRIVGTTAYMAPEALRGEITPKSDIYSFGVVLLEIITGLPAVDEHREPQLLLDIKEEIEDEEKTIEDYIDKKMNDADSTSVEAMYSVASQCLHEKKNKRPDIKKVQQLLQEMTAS
Outline: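 Readout: electrophoretic (LabChip) separation of fluorescent peptide substrate from phosphorylated product after EDTA quench. Reactions ran 60 min at room temperature with 0.6 nM IRAK4, 1.5 μM peptide and 500 μM ATP; inhibition referenced to no-enzyme (100%) and vehicle (0%) controls.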

| Structure (SMILES) | Papp at 2 h, 3 µM [1] | EC50 [2] | IC50 (IRAK4) | EC50 ([2]; Homo sapiens) |
| --- | --- | --- | --- | --- |
| CC(C)(O)CCC1CC(c2cnc(-n3ncc4cc(C#N)cnc43)cc2NCC(F)F)=NO1 (stereo not drawn) [Example 443, 1-(4-((2,2-difluoroethyl)amino)-5-(5-(3-hydroxy-3-methylbutyl)-4,5-dihydroisoxazol-3-yl)pyridin-2-yl)-1H-pyrazolo[3,4-b]pyridine-5-carbonitrile] | 14.1 ×10⁻⁶ cm/s | 390 nM | 2 nM | – |
| CC(C)Nc1cc(-n2ncc3cc(C#N)cnc32)ncc1-c1cn(C2CCOC2)nn1 (stereo not drawn) [Example 214, 1-(4-(isopropylamino)-5-(1-(tetrahydrofuran-3-yl)-1H-1,2,3-triazol-4-yl)pyridin-2-yl)-1H-pyrazolo[3,4-b]pyridine-5-carbonitrile] | 13.6 ×10⁻⁶ cm/s | – | 7 nM | 920 nM |
| CC(=O)N1CCC(c2cc(-c3cnc(-n4ncc5cc(C#N)cnc54)cc3NC(C)C)on2)CC1 [Example 402, 1-(5-(3-(1-acetylpiperidin-4-yl)isoxazol-5-yl)-4-(isopropylamino)pyridin-2-yl)-1H-pyrazolo[3,4-b]pyridine-5-carbonitrile] | 19.2 ×10⁻⁶ cm/s | – | 2 nM | 250 nM |
| CC(C)Nc1cc(-n2ncc3cc(C#N)cnc32)ncc1-n1cc(C2CCOCC2)nn1 [Example 355, 1-(4-(isopropylamino)-5-(4-(tetrahydro-2H-pyran-4-yl)-1H-1,2,3-triazol-1-yl)pyridin-2-yl)-1H-pyrazolo[3,4-b]pyridine-5-carbonitrile] | 48.7 ×10⁻⁶ cm/s | – | 7 nM | 240 nM |
| CC(C)Nc1cc(-n2ncc3cc(C#N)cnc32)ncc1-c1cn(CCc2cccnc2)nn1 [Example 119, 1-(4-(isopropylamino)-5-(1-(2-(pyridin-3-yl)ethyl)-1H-1,2,3-triazol-4-yl)pyridin-2-yl)-1H-pyrazolo[3,4-b]pyridine-5-carbonitrile] | 5 ×10⁻⁶ cm/s | – | 2 nM | 430 nM |
| CC(C)Nc1cc(-n2ncc3cnc(N)nc32)ncc1-n1cc(CCC(C)(C)F)nn1 [Example 351, 1-(5-(4-(3-fluoro-3-methylbutyl)-1H-1,2,3-triazol-1-yl)-4-(isopropylamino)pyridin-2-yl)-1H-pyrazolo[3,4-d]pyrimidin-6-amine] | 30.6 ×10⁻⁶ cm/s | – | 4 nM | 370 nM |
| CC(F)Cc1cn(-c2cnc(-n3ncc4cc(C#N)cnc43)cc2NC(C)C)nn1 (single isomer, unassigned) [Example 289, 1-(5-(4-(2-fluoropropyl)-1H-1,2,3-triazol-1-yl)-4-(isopropylamino)pyridin-2-yl)-1H-pyrazolo [3,4-b]pyridine-5-carbonitrile] | 47.4 ×10⁻⁶ cm/s | – | 6 nM | 200 nM |
| CNCCCc1cc(-c2cnc(-n3ncc4cc(C#N)cnc43)cc2NC(C)C)on1 [Example 414, 1-(4-(isopropylamino)-5-(3-(3-(methylamino)propyl)isoxazol-5-yl)pyridin-2-yl)-1H-pyrazolo[3,4-b]pyridine-5-carbonitrile] | < 1.5 ×10⁻⁶ cm/s | – | 7 nM | 250 nM |
| CC(C)Nc1cc(-n2ncc3cc(C#N)cnc32)ncc1-c1cn([C@H]2CCN(S(C)(=O)=O)C[C@H]2O)nn1 [Example 181, 1-(5-(1-((3R,4S)-3-hydroxy-1-(methylsulfonyl)piperidin-4-yl)-1H-1,2,3-triazol-4-yl)-4-(isopropylamino)pyridin-2-yl)-1H-pyrazolo[3,4-b]pyridine-5-carbonitrile] | < 1.5 ×10⁻⁶ cm/s | – | 7 nM | 400 nM |
| CC(C)Nc1cc(-n2ncc3cc(C#N)cnc32)ncc1-n1cc(CC[C@](C)(O)CO)nn1 [Example 387, (S)-1-(5-(4-(3,4-dihydroxy-3-methylbutyl)-1H-1,2,3-triazol-1-yl)-4-(isopropylamino)pyridin-2-yl)-1H-pyrazolo[3,4-b]pyridine-5-carbonitrile] | < 1.5 ×10⁻⁶ cm/s | – | 8 nM | 240 nM |
| CC(C)Nc1cc(-n2ncc3cc(C#N)cnc32)ncc1-n1cc(CCN2CCOCC2)nn1 [Example 349, 1-(4-(isopropylamino)-5-(4-(2-morpholinoethyl)-1H-1,2,3-triazol-1-yl)pyridin-2-yl)-1H-pyrazolo[3,4-b]pyridine-5-carbonitrile] | 18.6 ×10⁻⁶ cm/s | – | 3 nM | 270 nM |
| CC(C)Nc1cc(-n2ncc3cc(C#N)cnc32)ncc1-n1cc(C2CCN(S(C)(=O)=O)CC2)nn1 [Example 361, 1-(4-(isopropylamino)-5-(4-(1-(methylsulfonyl)piperidin-4-yl)-1H-1,2,3-triazol-1-yl)pyridin-2-yl)-1H-pyrazolo[3,4-b]pyridine-5-carbonitrile] | 5.6 ×10⁻⁶ cm/s | – | 7 nM | 360 nM |
| CC(C)(O)CCc1cn(-c2cnc(-n3ncc4cc(C#N)cnc43)cc2NC2CCC(F)C2)nn1 (stereo not drawn) [Example 364, 1-(4-((3-fluorocyclopentyl)amino)-5-(4-(3-hydroxy-3-methylbutyl)-1H-1,2,3-triazol-1-yl)pyridin-2-yl)-1H-pyrazolo[3,4-b]pyridine-5-carbonitrile] | 4.5 ×10⁻⁶ cm/s | – | 3 nM | 250 nM |
| CC(=O)N1CC(c2cn(-c3cnc(-n4ncc5cc(C#N)cnc54)cc3NC(C)C)nn2)C1 [Example 339, 1-(5-(4-(1-acetylazetidin-3-yl)-1H-1,2,3-triazol-1-yl)-4-(isopropylamino)pyridin-2-yl)-1H-pyrazolo[3,4-b]pyridine-5-carbonitrile] | < 1.5 ×10⁻⁶ cm/s | – | 5 nM | 390 nM |
| CC(C)Nc1cc(-n2ncc3cc(C#N)cnc32)ncc1-n1cc(CCCO)nn1 [Example 296, 1-(5-(4-(3-hydroxypropyl)-1H-1,2,3-triazol-1-yl)-4-(isopropylamino)pyridin-2-yl)-1H-pyrazolo[3,4-b]pyridine-5-carbonitrile] | 4.4 ×10⁻⁶ cm/s | – | 11 nM | 240 nM |
| CC(C)Nc1cc(-n2ncc3cc(C#N)cnc32)ncc1-n1cc(C2CCNCC2)nn1 [Example 334, 1-(4-(isopropylamino)-5-(4-(piperidin-4-yl)-1H-1,2,3-triazol-1-yl)pyridin-2-yl)-1H-pyrazolo[3,4-b]pyridine-5-carbonitrile] | < 1.5 ×10⁻⁶ cm/s | – | 2 nM | 70 nM |

Other lines, results leading:

| Papp at 2 h, 3 µM [1] | EC50 [2] | IC50 (IRAK4) | EC50 ([2]; Homo sapiens) | Structure (SMILES) |
| --- | --- | --- | --- | --- |
| 3.2 ×10⁻⁶ cm/s | – | 3 nM | 180 nM | CC(C)(O)CCc1cn(-c2cnc(-n3ncc4cc(C#N)cnc43)cc2N[C@H]2CC[C@H](F)C2)nn1 [Example 368, 1-(4-(((1S,3S)-3-fluorocyclopentyl)amino)-5-(4-(3-hydroxy-3-methylbutyl)-1H-1,2,3-triazol-1-yl)pyridin-2-yl)-1H-pyrazolo[3,4-b]pyridine-5-carbonitrile] |
| 11.9 ×10⁻⁶ cm/s | – | 2 nM | 250 nM | CCCn1cc(-c2cnc(-n3ncc4cc(C#N)cnc43)cc2Nc2cnn(CC(F)F)c2)nn1 [Example 60, 1-(4-((1-(2,2-difluoroethyl)-1H-pyrazol-4-yl)amino)-5-(1-propyl-1H-1,2,3-triazol-4-yl)pyridin-2-yl)-1H-pyrazolo[3,4-b]pyridine-5-carbonitrile] |
| < 1.5 ×10⁻⁶ cm/s | – | 4 nM | 1110 nM | Cc1n[nH]c(C)c1CCn1cc(-c2cnc(-n3ncc4cc(C#N)cnc43)cc2NC(C)C)nn1 [Example 102, 1-(5-(1-(2-(3,5-dimethyl-1H-pyrazol-4-yl)ethyl)-1H-1,2,3-triazol-4-yl)-4-(isopropylamino)pyridin-2-yl)-1H-pyrazolo[3,4-b]pyridine-5-carbonitrile] |
| 9.2 ×10⁻⁶ cm/s | – | 10 nM | 2560 nM | CC(=O)Cc1cn(-c2cnc(-n3ncc4cc(C#N)cnc43)cc2NC(C)C)nn1 [Example 331, 1-(4-(isopropylamino)-5-(4-(2-oxopropyl)-1H-1,2,3-triazol-1-yl)pyridin-2-yl)-1H-pyrazolo[3,4-b]pyridine-5-carbonitrile] |
| 10.1 ×10⁻⁶ cm/s | – | 4 nM | 1190 nM | CC(C)Nc1cc(-n2ncc3cc(C#N)cnc32)ncc1-c1cn(CC2CCC2)nn1 [Example 117, 1-(5-(1-(cyclobutylmethyl)-1H-1,2,3-triazol-4-yl)-4-(isopropylamino)pyridin-2-yl)-1H-pyrazolo[3,4-b]pyridine-5-carbonitrile] |
| 1.7 ×10⁻⁶ cm/s | – | 5 nM | 1450 nM | CC(C)Nc1cc(-n2ccc3cncnc32)ncc1-c1cn([C@H]2CCNC[C@H]2O)nn1 [Example 6, (3R,4S)-4-(4-(4-(isopropylamino)-6-(7H-pyrrolo[2,3-d]pyrimidin-7-yl)pyridin-3-yl)-1H-1,2,3-triazol-1-yl)piperidin-3-ol] |
| 33.9 ×10⁻⁶ cm/s | – | 5 nM | 160 nM | CCn1cc(-c2cnc(-n3ncc4cc(C#N)cnc43)cc2NC(C)C)nn1 [Example 37, 1-(5-(1-ethyl-1H-1,2,3-triazol-4-yl)-4-(isopropylamino)pyridin-2-yl)-1H-pyrazolo[3,4-b]pyridine-5-carbonitrile] |
| < 1.5 ×10⁻⁶ cm/s | – | 4 nM | 720 nM | CC(=O)N1CC[C@@H](n2cc(-c3cnc(-n4ncc5cc(C#N)cnc54)cc3NC(C)C)nn2)[C@H](O)C1 (single isomer, unassigned) [Example 203] |
| < 1.5 ×10⁻⁶ cm/s | – | 6 nM | 280 nM | CC(C)Nc1cc(-n2ncc3cc(C#N)cnc32)ncc1-n1cc(C2CCN(C(C)C)CC2)nn1 [Example 337, 1-(4-(isopropylamino)-5-(4-(1-isopropylpiperidin-4-yl)-1H-1,2,3-triazol-1-yl)pyridin-2-yl)-1H-pyrazolo[3,4-b]pyridine-5-carbonitrile] |
